The results in this text go back to patent US20140031368A1, “SELECTIVE HDAC INHIBITORS” (THE TRUSTEES OF COLUMBIA UNIVERSITY IN THE CITY OF NEW YORK, priority 2010, published 2014).

The target of one test is T1, HDAC6 (Homo sapiens, UniProt Q9UBN7).
T1 sequence (Q9UBN7 1-1215): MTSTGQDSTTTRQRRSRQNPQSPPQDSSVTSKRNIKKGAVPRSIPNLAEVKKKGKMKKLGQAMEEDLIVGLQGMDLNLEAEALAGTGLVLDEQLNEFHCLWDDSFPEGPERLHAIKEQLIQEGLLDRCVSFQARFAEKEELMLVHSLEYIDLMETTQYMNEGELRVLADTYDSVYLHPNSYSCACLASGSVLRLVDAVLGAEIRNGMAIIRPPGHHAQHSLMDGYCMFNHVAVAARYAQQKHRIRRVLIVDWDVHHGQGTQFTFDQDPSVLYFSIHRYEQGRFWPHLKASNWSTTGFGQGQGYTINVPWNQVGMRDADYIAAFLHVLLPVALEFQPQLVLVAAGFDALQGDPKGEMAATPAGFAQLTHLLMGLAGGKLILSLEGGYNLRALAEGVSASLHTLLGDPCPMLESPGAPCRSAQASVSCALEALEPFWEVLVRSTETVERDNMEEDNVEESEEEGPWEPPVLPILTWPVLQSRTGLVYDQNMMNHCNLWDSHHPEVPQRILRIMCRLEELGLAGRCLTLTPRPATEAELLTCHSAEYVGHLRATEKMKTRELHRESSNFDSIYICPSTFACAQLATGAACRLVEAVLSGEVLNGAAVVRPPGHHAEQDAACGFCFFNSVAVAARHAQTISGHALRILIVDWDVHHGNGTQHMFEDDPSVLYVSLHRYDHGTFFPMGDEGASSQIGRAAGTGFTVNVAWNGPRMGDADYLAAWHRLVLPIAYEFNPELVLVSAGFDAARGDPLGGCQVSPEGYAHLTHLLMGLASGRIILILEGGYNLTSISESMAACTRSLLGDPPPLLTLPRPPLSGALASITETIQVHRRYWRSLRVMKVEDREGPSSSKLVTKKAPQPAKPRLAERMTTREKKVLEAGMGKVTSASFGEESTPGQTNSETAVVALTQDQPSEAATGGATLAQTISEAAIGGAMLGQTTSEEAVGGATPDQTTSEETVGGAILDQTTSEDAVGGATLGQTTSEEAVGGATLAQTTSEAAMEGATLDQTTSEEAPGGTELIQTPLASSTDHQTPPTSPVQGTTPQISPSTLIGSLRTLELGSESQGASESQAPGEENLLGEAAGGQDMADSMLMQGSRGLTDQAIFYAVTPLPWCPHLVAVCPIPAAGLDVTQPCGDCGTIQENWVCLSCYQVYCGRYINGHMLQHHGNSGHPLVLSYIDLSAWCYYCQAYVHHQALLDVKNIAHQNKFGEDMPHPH
Kind of test: Fluorogenic HDAC assay kit (BPS Bioscience), HDAC6 inhibition. In kind it is biochemical. The settings on record: for IC50: purified/recombinant enzyme, inhibitor range 10,000-0.1 nM; for IC50 0 ratio (1/6): ratio IC50 HDAC1 / IC50 HDAC6. Here is the method:
(§1) Various compounds were tested in in vitro enzyme assays for their activity in inhibiting HDAC6 and HDAC1. The assays used was a fluorogenic HDAC assay kit (BPS Bioscience, San Diego, Calif.). On a micotiter the HDAC fluorometric substrate containing an aceylated side chain is incubated with a sample containing HDAC activity (purified/recombinant HDAC1 or HDAC6 enzyme). The deacetylation sensitizes the substrate so subsequent treatment with a lysine developer produces a fluorophore that can then be measured using a fluorescence reader. The assay is performed in the absence and presence of the potential inhibitor compound.
(§2) Follow BPS Bioscience Fluorogenic HDAC Assay Kit (see Example 2). Range of inhibitor compounds tested: 10,000-0.1 nM

For the next test, the target named is HDAC1 (Homo sapiens, UniProt Q13547). Kind of test: Fluorogenic HDAC assay kit (BPS Bioscience), HDAC1 inhibition. The class given is biochemical. The settings on record: purified/recombinant enzyme; inhibitor range 10,000-0.1 nM. The method, then: as §1, §2
Another test relates to NP-C fibroblasts. Kind of test: Esterification of LDL-derived cholesterol (cholesteryl [3H]oleate formation) in NP-C fibroblasts. The class given is cell-based, human. The note with it: 24 h treatment with 5 μM SAHA after 4 d in LPDS; FIG. 4B. The method, then:
Cells were grown for 4 d in LPDS, followed by a 24 h treatment with or without 5 μM SAHA, the last 4 h of which included LDL plus [^3H]oleate. *P<0.05, treated vs. untreated cells by two-tailed Student's t-test.

The test system of test [1] is HDAC genes in NPC-26 fibroblasts. Kind of test: qRT-PCR of HDAC gene expression in NPC-26 fibroblasts. The class given is cell-based, human. The settings on record: NPC-26 fibroblasts treated with HDAC inhibitor; FIG. 3B.
The next test concerns NP-C mutant fibroblasts. The class given is cell-based, human.

HDAC1, sequence (Q13547 whole entry): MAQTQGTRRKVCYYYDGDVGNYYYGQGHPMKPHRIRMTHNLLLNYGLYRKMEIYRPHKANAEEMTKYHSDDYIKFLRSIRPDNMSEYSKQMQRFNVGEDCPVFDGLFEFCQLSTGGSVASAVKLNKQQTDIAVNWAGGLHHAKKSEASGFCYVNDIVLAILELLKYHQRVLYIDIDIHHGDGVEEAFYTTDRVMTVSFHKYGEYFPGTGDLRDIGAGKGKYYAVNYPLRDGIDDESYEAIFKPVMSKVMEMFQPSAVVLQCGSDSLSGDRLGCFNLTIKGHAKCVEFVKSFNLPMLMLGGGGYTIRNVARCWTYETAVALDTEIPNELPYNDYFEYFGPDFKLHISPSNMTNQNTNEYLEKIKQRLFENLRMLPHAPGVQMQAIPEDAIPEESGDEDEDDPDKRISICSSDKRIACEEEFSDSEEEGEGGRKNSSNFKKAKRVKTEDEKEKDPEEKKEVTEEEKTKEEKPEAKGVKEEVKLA

Regarding `O=C(CCCCCC(=O)Nc1ccc(C(C(=O)Nc2cccc3cccnc23)C(=O)Nc2cccc3cccnc23)cc1)NO` [Compound 31, N^1-(4-(1,3-dioxo-1,3-bis(quinolin-8-ylamino)propan-2-yl)phenyl)-N^7-hydroxyheptanediamide], the IC50 (in general, the point on the concentration scale where inhibition reaches its midpoint) was 0.022 µM on HDAC6 and 1.13 µM at HDAC1. At HDAC6, the “IC50 0 ratio (1/6)” value amounted to 51.
For `CC(C)(C)OC(=O)Nc1ccc(-c2cc(C(=O)NCCCCCCC(=O)NO)no2)cc1` [Kozikowski compound, reference compound], at HDAC1, the 50% inhibitory concentration (IC50) is 0.0384 µM.
For the compound `O=C(CCCCCCNC(=O)c1ccc(C(C(=O)Nc2cccc3cccnc23)C(=O)Nc2cccc3cccnc23)cc1)NO` [Compound 61, 2-(4-(7-(hydroxyamino)-7-oxoheptylcarbamoyl)phenyl)-N1,N3-di(quinolin-8-yl)malonamide], the IC50 amounted to 0.012 µM at HDAC6 and 1.04 µM on HDAC1. Further, the “IC50 0 ratio (1/6)” value at HDAC6 came to 87.
For `CC(C)(C)c1ccc(NC(=O)C(CCCCCC(=O)NO)C(=O)Nc2ccc(C(C)(C)C)cc2)cc1` [Compound 77], on HDAC6, the half-inhibitory concentration (IC50) stood at 0.0344 µM and the “IC50 0 ratio (1/6)” value came to 3.1. Also, the 50% inhibitory concentration (IC50) at HDAC1 was 0.106 µM.
Consider `O=C(CCCCCCC(=O)Nc1ccccc1)NO` [SAHA, suberoylanilide hydroxamic acid], for which the “esterification of LDL-derived cholesterol (percent cholesteryl [3H]oleate formation relative to total lipids)” value in the test with NP-C fibroblasts is recorded as “Restoration of deficient esterification of LDL-derived cholesterol”. Besides, in test [1], the “HDAC gene expression (qRT-PCR)” value is listed as “restores expression in the direction of control cells”. Also, the “lysosomal accumulation of unesterified cholesterol (filipin)” value with NP-C mutant fibroblasts is listed as “Reduction in lysosomal accumulation of unesterified cholesterol”.
With `O=C(CCCCCCNC(=O)c1ccc(C(F)(C(=O)Nc2cccc3cccnc23)C(=O)Nc2cccc3cccnc23)cc1)NO` [Compound 65, 2-Fluoro-2-(4-(7-(hydroxyamino)-7-oxoheptylcarbamoyl)phenyl)-N1,N3-di(quinolin-8-yl)malonamide], the IC50 at HDAC6 was determined as 0.042 µM; on HDAC1 it was 2.45 µM. Further, the “IC50 0 ratio (1/6)” value at HDAC6 came to 58.
The matching figures for `O=C(CCCCCCC(=O)Nc1ccc(C(C(=O)Nc2cccc3cccnc23)C(=O)Nc2cccc3cccnc23)cc1)NO` [Compound 6, N^1-(4-(1,3-Dioxo-1,3-bis(quinolin-8-ylamino)propan-2-yl)phenyl)-N^8-hydroxyoctanediamide]: 0.00225 µM, 0.242 µM and 107.
The matching figures for `CC(C)(C)c1ccc(CNC(=O)CCCCCCCC(=O)NO)cc1` [Compound 78]: 0.0657 µM, 0.676 µM and 10.3.
For the compound `O=C(CCCCCCC(=O)Nc1ccc(C(C(=O)Nc2ccccc2)C(=O)Nc2ccccc2)cc1)NO` [Compound 9, N^1-(4-(1,3-Dioxo-1,3-bis(phenylamino)propan-2-yl)phenyl)-N^8-hydroxyoctanediamide], at HDAC6, the IC50 was 0.003 µM and the “IC50 0 ratio (1/6)” value is reported as 42.9. In addition, the half-maximal inhibitory concentration (IC50) on HDAC1 is 0.129 µM.
The matching figures for `CC(C)(C)OC(=O)Nc1ccc(-c2csc(C(=O)NCCCCCCC(=O)NO)c2)cc1` [Compound 79]: 0.0044 µM, 10.6 and 0.0467 µM.
As for `O=C(CCCCCCCC(=O)Nc1ccc(C(C(=O)Nc2cccc3cccnc23)C(=O)Nc2cccc3cccnc23)cc1)NO` [Compound 28, N^1-(4-(1,3-dioxo-1,3-bis(quinolin-8-ylamino)propan-2-yl)phenyl)-N^9-hydroxynonanediamide], at HDAC6, the IC50 worked out at 0.057 µM and the “IC50 0 ratio (1/6)” value worked out at 25. Also, the IC50 on HDAC1 was 1.44 µM.
